Measurements reported in paper PMC3894197, “Penam Sulfones and β-Lactamase Inhibition: SA2-13 and the Importance of the C2 Side Chain Length and Composition” (PLoS ONE, 2014).

What was measured:
[1] = target: T1, wt SHV-1 (Klebsiella pneumoniae, UniProt P0AD64); assay: biochemical; assay type: biochemical
T1 construct: made in house
Experimental: (§1) Measurements were performed using glass cuvettes with 1 mL final volume in 1 mM phosphate-buffered saline (PBS) at pH 7.4 as previously described.

[2] = test system: E. coli DH10B SHV-1; assay: Antimicrobial disc assay; assay type: cell-based, Escherichia coli; conditions: for Disc Assay Zone E. coli DH10B SHV-1: 10 µg ampicillin and 10 µg inhibitor, disc and ampicillin alone 6 mm
Experimental: (§2) In brief, paper discs (6 mm diameter) were soaked with 10 µg inhibitor and 10 µg of ampicillin or cephalothin. Discs were placed on Mueller-Hinton (M-H) agar plates plated with 10^4–10^5 CFUs of Escherichia coli DH10B harboring SHV-1 or PDC-3 or E. coli ATCC 35218 containing TEM-1. Measured zone clearing diameters were used to determine susceptibility.
(§3) Supplementary file pone.0085892.s003.docx: Table S1 Antimicrobial disc assays. These assays were performed with 10 µg ampicillin and 10 µg inhibitor. The size of the disc and the ampicillin zone size alone is 6 mm. (DOCX) Click here for additional data file.

[3] = test system: E. coli DH10B PDC-3; assay: Antimicrobial disc assay; assay type: cell-based, Escherichia coli; conditions: for Disc Assay Zone E. coli DH10B PDC-3: 10 µg ampicillin and 10 µg inhibitor, disc and ampicillin alone 6 mm
Experimental: as §2, §3

[4] = test system: E. coli ATCC 35218 containing TEM-1; assay: Antimicrobial disc assay; assay type: cell-based, Escherichia coli; conditions: 10 µg ampicillin and 10 µg inhibitor; disc and ampicillin alone 6 mm
Experimental: as §2, §3

[5] = target: T2, SHV-1 (Klebsiella pneumoniae, UniProt P0AD64); assay: IC50 by nitrocefin hydrolysis after pre-incubation of enzyme and inhibitor; assay type: biochemical
T2 construct: made in house
T2 sequence (P0AD64 22-286): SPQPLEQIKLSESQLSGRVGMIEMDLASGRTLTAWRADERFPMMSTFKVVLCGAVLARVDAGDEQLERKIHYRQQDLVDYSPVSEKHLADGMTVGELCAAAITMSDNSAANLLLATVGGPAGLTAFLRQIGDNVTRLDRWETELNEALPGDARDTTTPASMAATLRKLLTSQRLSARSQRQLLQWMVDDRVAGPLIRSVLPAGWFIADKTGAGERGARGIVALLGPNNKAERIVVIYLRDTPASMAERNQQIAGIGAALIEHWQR
Experimental: as §1

[6] = test system: KPC-2; parameters: method as in PMID 22330909; conditions: the defined K i represents the K m used in Ke et al.; cited from earlier work
[7] = target: T2, SHV-1; assay: Partition ratio (turnover number, tn); assay type: biochemical; conditions: SHV-1, 24 hour incubation, loss of >90% nitrocefin hydrolysis
Experimental: The partition ratio (turnover number, t n = k cat/k inact) or the partitioning of the initial enzyme-inhibitor complex between hydrolysis and enzyme inactivation was measured by incubating fixed enzyme concentrations with increasing amounts of inhibitor over a 24 hour period in a total volume of 100 µL as described. After 24 hours, a 20 µL aliquot of the incubation mix was removed and the steady-state hydrolysis of nitrocefin was measured and compared to an uninhibited control. The t n was determined as the inhibitor proportion that led to a loss of >90% of nitrocefin hydrolysis by the enzyme.

[8] = target: T2, SHV-1; assay: Inactivation kinetics (kinact, KI, kinact/KI) with nitrocefin; assay type: biochemical
Experimental: kinact (the first-order rate constant of inactivation) was determined by monitoring the inactivation of the enzyme by increasing concentrations of inhibitor over a time course using 21 nM of enzyme and 100 µM of nitrocefin according to a previously published method. The k obs determined using Origin (OriginLab Corporation) to plot the reciprocal of the ordinate of the intersection of the straight lines obtained from the initial velocity of inhibition, v o, and the final velocity of inhibition, vf. Each k obs was plotted against the inhibitor concentration [I] and fit to equation 2 to calculate k inact and k inact/K I. [drawing 2] (2)

[9] = target: T2, SHV-1; assay: Reactivation of β-lactamase (k obs react) after inhibitor/enzyme incubation; assay type: biochemical; conditions: SHV-1, 90:1 inhibitor:enzyme, 30 min incubation
Experimental: Then, unbound inhibitor was washed out with a Macro Spin Column G10 (The Nest Group). A competition assay was performed with 100 µM of nitrocefin and a 5 µL aliquot of the incubated mixture at three different time points (5, 30, and 1440 min) to determine the reactivation of the enzyme. Tazobactam kinetic profiles are included for comparison. EnzFitter™ (Biosoft) and Microsoft Excel were used to analyze the data.

[10] = target: T3, SHV K234R (Klebsiella pneumoniae, UniProt P0AD64, K230R); assay: Circular dichroism thermal denaturation; conditions: CD at 208 nm, apo-K234R 48.2°C
T3 construct: GST (N, cleaved yes); made in house; host or cells: Origami2 (DE3) E. coli
T3 sequence (P0AD64 22-286 K230R): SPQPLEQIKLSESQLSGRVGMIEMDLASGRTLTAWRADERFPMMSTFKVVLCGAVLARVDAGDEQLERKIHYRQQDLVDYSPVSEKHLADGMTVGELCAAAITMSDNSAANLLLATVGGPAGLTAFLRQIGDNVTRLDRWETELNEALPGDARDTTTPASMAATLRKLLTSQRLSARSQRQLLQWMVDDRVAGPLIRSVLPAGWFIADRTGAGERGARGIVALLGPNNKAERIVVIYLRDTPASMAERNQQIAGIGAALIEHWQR
Experimental: (§4) Circular dichroism (CD) was carried out on the SHV-1 and the SHV K234R proteins with and without SA2-13 and this is presented in Figure S1. In short, CD was performed on a JASCO J-815 spectrometer with a Peltier-effect temperature controller (GE Healthcare) as previously described. Quartz cells with a 0.1 cm pathlength were used for experiments (Hellma). Thermal denaturation was performed from 22–72°C with a heating rate of 2°C/min and raw data was corrected for the fraction of denatured protein (f u). The collected data at 208 nm was utilized to calculate a melting temperature (T m).

[11] = target: T2, SHV-1; assay: Circular dichroism thermal denaturation; conditions: CD at 208 nm, apo-SHV-1 54.2°C
Experimental: as §4

[12] = target: T3, SHV K234R; assay: biochemical; assay type: biochemical
Experimental: as §1

[13] = target: T2, SHV-1; conditions: cited from earlier work

T1 sequence (P0AD64 22-286): as the sequence (P0AD64 22-286) above

| SMILES | Ki [1] [µM] | Disc Assay Zone E. coli DH10B SHV-1 [2] [mm] | Disc Assay Zone E. coli DH10B PDC-3 [3] [mm] | Disc Assay Zone E. coli ATCC 35218 (TEM-1) [4] [mm] | IC50 [5] [µM] | t n 24h [7] | Ki [8] [µM] | k inact/K I ([8]; SHV-1) [M⁻¹ s⁻¹] | k obs react 30 min [9] [s⁻¹] | also measured |
| --- | --- | --- | --- | --- | --- | --- | --- | --- | --- | --- |
| CC1(C(=O)OCC(N)=O)C(C(=O)O)N2C(=O)CC2S1(=O)=O (centres unmarked) [PSR-3-226] | 2.6 ± 0.3 | 6 | 12 | 12 | 0.37 ± 0.03 | >1500 | 1 ± 0.1 | 60000 ± 10000 | – | microbial activity versus AmpC (PDC-3) expressed in E. coli DH10B ([3]; disc assay): had microbial activity; K m against KPC-2 [6]: 3.8 ± 0.4 µM |
| CC1(COC(=O)CCC(=O)O)C(C(=O)O)N2C(=O)CC2S1(=O)=O (centres unmarked) [PSR-4-155] | 2.7 ± 0.2 | 6 | 6 | 13 | 0.44 ± 0.04 | >1500 | 2.1 ± 0.2 | 50000 ± 10000 | >0.2 | Ki fold higher compared to PSR-4-157 ([1]; SHV-1): ~2 fold; KI fold higher compared to PSR-4-157 ([8]; SHV-1): ~2 fold; kinact/KI fold lower compared to PSR-4-157 ([8]; SHV-1): 2 fold |
| CC1(COC(=O)CCCCC(=O)O)C(C(=O)O)N2C(=O)CC2S1(=O)=O (centres unmarked) [PSR-4-157] | 1.7 ± 0.1 | 6 | 6 | 11 | 0.16 ± 0.01 | >1500 | 1 ± 0.2 | 100000 ± 20000 | – | fold higher IC50 compared to SA2-13 ([5]; SHV-1): 2 fold |
| C[C@]1(COC(=O)CCCC(=O)O)[C@H](C(=O)O)N2C(=O)C[C@H]2S1(=O)=O [SA2-13] | 1.7 ± 0.1 | 6 | 6 | 14 | 0.081 ± 0.007 | 120 | 0.19 ± 0.01 | 370000 ± 60000 | 0.004 ± 0.001 | melting temperature Tm of SHV K234R with inhibitor [10]: unaffected; melting temperature Tm of SHV K234R with inhibitor ([10]; listed as MN-2-261): 48.7 °C; melting temperature Tm of SHV-1 with inhibitor [11]: unaffected; melting temperature Tm of SHV-1 with inhibitor ([11]; listed as MN-2-261): 54.5 °C; Ki [12]: 2.1 ± 0.2 µM; fold increase of K i for K234R SHV relative to wt SHV-1 ([12]; K234R vs wt SHV-1): 2 fold; k react fold decrease compared to tazobactam [13]: about 10 fold |
| C[C@]1(Cn2ccnn2)[C@H](C(=O)O)N2C(=O)C[C@H]2S1(=O)=O [tazobactam, reference compound] | – | 6 | 14 | 21 | – | 5 | – | – | 0.040 ± 0.001 | inhibition of SHV-1 expressing cells ([2]; DH10B E. coli, high SHV-1 expression): Inhibition was not observed |
